From patent US11486825B1, “Devices and methods for analysis of biological matter using plasmon resonance” (THE FLORIDA INTERNATIONAL UNIVERSITY BOARD OF TRUSTEES, priority 2022, dated 2022)

Tested on: contracting CMs (cardiomyocytes)
Experiment: P-CeG (plasmonic cardio-eukaryography) signal of contracting cardiomyocytes cultured on gold SPR sensor, consecutive drug injections
Assay type: cell-based
Source text: The device as shown in FIGS. 1(a) and 1(c) was used for experiments and studies. The device had dimensions of 12 cm×7.5 cm×5 cm and had micro LEDs, LED splitters, micro prisms, micro polarizers, and micro detectors that induced plasmonic waveguides and detected changes in the electrical/mechanical activity of a cell membrane. Cellular function of mechanical and electrical origins was filtered and sorted using software in operable communication with the sensing platform, and was then compared to the physiological parameters of a healthy cell. […] The hinged cap (fluidic module) had heavy-duty gaskets made from PDMS attached thereto. Micropumps and microtubing on the were used to drive the flow of the cell medium from its attached reservoir. The base of the device acted as a Faraday cage for the micro settings of plasmonic induction and detection, as well as related PCB boards and computer interface connectors of the sensing platform. The refraction index of the prisms was […] (each prism was a BK7 prism from a BI2000 device (Biosensing Instruments, AZ). The cell-SPR model discussed herein with reference to FIGS. 2(a)-2(f) was used as the cell-SPR model for experiments.
Empirical P-CeG data was correlated to the mathematical model of charge distribution near CM's cell membrane. FIG. 10(a) illustrates the four phases in a CM's action potential, field potential, and force of contraction profile (top to bottom, respectively) over time. The dashed vertical lines show phases 0, 1, 2, and 3 of the CM's electromechanical activities. […] Values were extracted using equations from the cell-SPR model. […] Arrows from left to right in the bottom graph depict the depolarization amplitude (DA), field potential duration (FPD), and the repolarization amplitude (RA) as the main features of a CM's field potential. These are also elaborated on in FIG. 10(e) and FIG. 10(f).
Feature extraction was performed on a P-CeG signal and its correlated charge profile of contracting CMs. FIGS. 11(a), 11(b), and 11(c) show amplitude, full width at half maximum (FWHM), and inter-beat intervals (IBI), respectively, for a 100-second epoch from the P-CeG signal obtained from 12 CM-cultured gold sensors. The high variability of values across different sensors is due to the selected methodology for cell isolation and non-ideal experimental conditions (room temperature and without CO2). FIGS. 11(d), 11(e), and 11(f) show DA, RA, and FPD of contracting CMs obtained from their charge profile.
Analysis was performed using blebbistatin as the cells to be analyzed. Consecutive injections of 1 micromolar (04), 3 μM, 5 μM, 7 and 9 μM blebbistatin were performed, and the P-CeG signals were recorded and analyzed. […] A decrease of the control sample's amplitude and high variability in the FWHM of data with time indicate decreased cellular functionality due to non-ideal experimental conditions. Average data are reported as mean±std: 1-way ANOVA, p<0.0001, 95% CI.
Analysis was performed using verapamil as the cells to be analyzed. Consecutive injections of 50 nanomolar (nM), 100 nM, 200 nM, and 500 nM verapamil were performed, and the P-CeG signals were recorded and analyzed. […] Average data are reported as mean±std: 1-way ANOVA, p<0.0001, 95% CI. […] Referring to FIGS. 14(k) and 14(l), an increase in FPD and FWHM of the signals is distinctly observable with increasing verapamil concentrations.
Analysis was performed using caffeine as the cells to be analyzed. Consecutive injections of 2 millimolar (mM), 4 mM, 6 mM, and 8 mM caffeine were performed, and the P-CeG signals were recorded and analyzed. […] Average data are reported as mean±std: 1-way ANOVA, p<0.0001, 95% CI.

## Cc1ccc2c(c1)C(=O)C1(O)CCN(c3ccccc3)C1=N2 (stereo not drawn) [blebbistatin]
Consecutive injections of 1, 3, 5, 7 and 9 μM blebbistatin vs control, FIGS. 13(a), 13(b), 13(d)
  P-CeG signal amplitude (refractive index change): continuous decrease in signal amplitude
Five concentrations of blebbistatin 1-9 μM, FIG. 13(i)
  signal's peak amplitudes (normalized refractive angle change): decreased
Five concentrations of blebbistatin 1-9 μM, FIG. 13(j)
  FWHM duration: higher variability
Five concentrations of blebbistatin 1-9 μM, FIG. 13(k)
  cell signaling rate (action potential per minute, APM): relatively unchanged
Increasing blebbistatin concentrations 1-9 μM, FIG. 13(f)
  depolarization amplitude (DA): no significant difference
Increasing blebbistatin concentrations 1-9 μM, FIG. 13(g)
  repolarization amplitude (RA): no significant difference
Increasing blebbistatin concentrations 1-9 μM, FIG. 13(h)
  field potential duration (FPD): showed a decrease

## Cn1c(=O)c2c(ncn2C)n(C)c1=O [caffeine]
Consecutive injections of 2, 4, 6 and 8 mM caffeine vs control, FIGS. 15(a), 15(b), 15(d)
  P-CeG signal amplitude (refractive index change): presence of detectable signal amplitude
Increased caffeine concentrations 2-8 mM, FIG. 15(i)
  peak amplitudes (normalized refractive angle change): relatively unchanged
Increased caffeine concentrations 2-8 mM, FIG. 15(j)
  FWHM duration: relatively unchanged
Increased caffeine concentrations 2-8 mM, FIG. 15(k)
  cell signaling rate (action potential per minute, APM): decreases
Increasing caffeine concentrations 2-8 mM, FIG. 15(f)
  depolarization amplitude (DA): no significant difference
Increasing caffeine concentrations 2-8 mM, FIG. 15(g)
  repolarization amplitude (RA): no significant difference
Increasing caffeine concentrations 2-8 mM, FIG. 15(h)
  field potential duration (FPD): slight increase

## COc1ccc(CCN(C)CCCC(C#N)(c2ccc(OC)c(OC)c2)C(C)C)cc1OC (stereo not drawn) [verapamil]
Consecutive injections of 50, 100, 200 and 500 nM verapamil vs control, FIGS. 14(a), 14(b), 14(d)
  P-CeG signal amplitude (refractive index change): sharp decrease in signal amplitude
Increasing verapamil concentration 50-500 nM, FIG. 14(h)
  peak amplitudes (normalized refractive angle change): decreased
Increasing verapamil concentration 50-500 nM, FIG. 14(i)
  FWHM duration: slightly increases before it becomes undetectable and is counted as zero
Increasing verapamil concentration 50-500 nM, FIG. 14(j)
  cell signaling rate (action potential per minute, APM): decreased
Increasing verapamil concentrations 50-500 nM, FIG. 14(e)
  depolarization amplitude (DA): no significant difference
Increasing verapamil concentrations 50-500 nM, FIG. 14(f)
  repolarization amplitude (RA): no significant difference
Increasing verapamil concentrations 50-500 nM, FIG. 14(g)
  field potential duration (FPD): showed an increase
